# Values of other authors in patent publication US6103262A, “Modified-release metronidazole compositions and methods for making and using same” (priority 1994, dated 2000).
# Tests used:
# [1] = in vivo
# [2] = system: Trichomonas vaginalis, Entamoeba histolytica, Helicobacter species, anaerobic bacteria
# [3] = system: trichomoniasis or bacterial vaginosis
structure (smiles),measurement,setting,value
"Cc1ncc([N+](=O)[O-])n1CCO [metronidazole, 1-(2-hydroxyethyl)-2-methyl-5-nitroimidazole]",absorption by the bloodstream,[1],rapidly absorbed
same,clearance from the bloodstream,[1],rapidly cleared
same,aqueous solubility (in words),,aqueous soluble
same,killing of microorganisms,[2],effective for killing
same,side effects,[3]; in vivo,significant and undesirable side effects such as nausea
same,"occurrence and severity of side effects, lower dosages","[3]; in vivo, po",significantly reduce the occurrence and severity of side effects
same,clinical efficacy,[3]; single large dose (~2 grams) as a bolus,clinically effective
